Data from patent US4015974A, “Amido phosphorothiolates” (priority 1972, dated 1977).

Assays:
Type in all cases: in vivo
[1] = test system: nematode; assay: Effect on nematode (Table 7); parameters: tested at 500 ppm; details: 500 p.p.m., 24 hours
Experimental: 0.5 ml. of a nematode-containing aqueous solution separated from food according to Baermann's method was placed in a test tube with ground stopper containing 0.5 ml. of an aqueous dilute solution of each emulsifiable concentrates of the present compounds. The concentration of the active ingredient in the mixture was adjusted to 500 p.p.m. After 24 hours, the death and alive were observed microscopically to calculate the mortality.

[2] = test system: rice; assay: Water application, phytotoxicity on rice (Table 2); parameters: key: 0: no effect; 1: very slightly affected; 2: slightly affected; 3: moderately affected; 4: considerably affected; 5: completely killed; details: 25 days, score 0-5
Outline: (§1)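 Paddy-soil pots flooded to paddy conditions; rice transplanted at 3-leaf stage, barnyard grass sown, broad-leaved weeds germinating spontaneously. Test compounds applied as wettable powder to soil under flooded water. Herbicidal effect and rice phytotoxicity scored 0–5 at 25 days after application.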

[3] = test system: broad-leaved weeds, e.g., monochoria, false pimpernel and toothcup; assay: Water application, herbicidal effect on broad-leaved weeds (Table 2); parameters: key: 0: not damaged; 5: completely killed; details: 25 days, score 0-5
Outline: as §1

[4] = test system: radish; assay: Pre-emergence application, herbicidal effect on radish (Table 1); parameters: key: 0: not damaged; 5: completely killed; details: 20 days after application, score 0-5
Outline: (§2)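 Soil treatment after sowing, pre-emergence; wettable powder formulations diluted with water. Greenhouse, 20 d. Score 0 = no damage, 5 = complete kill.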

[5] = test system: common lambsquarter (Chenopodium album); assay: Pre-emergence application, herbicidal effect on common lambsquarter (Table 1); parameters: key: 0: not damaged; 5: completely killed; details: 20 days after application, score 0-5
Outline: as §2

[6] = test system: common purslane (Portulaca oleracea); assay: Pre-emergence application, herbicidal effect on common purslane (Table 1); parameters: key: 0: not damaged; 5: completely killed; details: 20 days after application, score 0-5
Outline: as §2

[7] = test system: barnyard grass (Echinochloa crus-galli); assay: Pre-emergence application, herbicidal effect on barnyard grass (Table 1); parameters: key: 0: not damaged; 5: completely killed; details: 20 days after application, score 0-5
Outline: as §2

[8] = test system: barnyard grass (Echinochloa crus-galli); assay: Water application, herbicidal effect on barnyard grass (Table 2); parameters: key: 0: not damaged; 5: completely killed; details: 25 days, score 0-5
Outline: as §1

[9] = test system: redroot pigweed (Amaranthus retroflexus); assay: Pre-emergence application, herbicidal effect on redroot pigweed (Table 1); parameters: key: 0: not damaged; 5: completely killed; details: 20 days after application, score 0-5
Outline: as §2

[10] = test system: large crabgrass (Digitaria sanguinalis); assay: Pre-emergence application, herbicidal effect on large crabgrass (Table 1); parameters: key: 0: not damaged; 5: completely killed; details: 20 days after application, score 0-5
Outline: as §2

Compound | Phytotoxicity on rice ([2]; 10 g/a) | Phytotoxicity on rice ([2]; 20 g/a) | Phytotoxicity on rice ([2]; 40 g/a) | Herbicidal effects, broad-leaved weeds ([3]; 10 g/a) | Herbicidal effects, broad-leaved weeds ([3]; 20 g/a) | Herbicidal effects, broad-leaved weeds ([3]; 40 g/a) | Herbicidal effect, radish ([4]; 10 g./a.) | Herbicidal effect, radish ([4]; 20 g./a.) | Herbicidal effect, radish ([4]; 40 g./a.) | Herbicidal effect, common lambsquarter ([5]; 10 g./a.) | Herbicidal effect, common lambsquarter ([5]; 20 g./a.) | Herbicidal effect, common lambsquarter ([5]; 40 g./a.) | Herbicidal effect, common purslane ([6]; 10 g./a.) | Herbicidal effect, common purslane ([6]; 20 g./a.) | Herbicidal effect, common purslane ([6]; 40 g./a.) | Herbicidal effect, barnyard grass ([7]; 10 g./a.) | Herbicidal effect, barnyard grass ([7]; 20 g./a.) | Herbicidal effect, barnyard grass ([7]; 40 g./a.) | Herbicidal effects, barnyard grass ([8]; 10 g/a) | Herbicidal effects, barnyard grass ([8]; 20 g/a) | further results
ClC=CCCl [Dichloropropene, reference compound] |  |  |  |  |  |  |  |  |  |  |  |  |  |  |  |  |  |  |  |  | Mortality [1]: 79.3%
CCOP(=O)(SCC(=O)N1CCCCC1CC)SCc1ccc(Br)cc1 (stereo not shown) [Compound 57] |  |  |  |  |  |  |  |  |  |  |  |  |  |  |  |  |  |  |  |  | Mortality [1]: 91.0%
CCOP(=O)(SCC(=O)N1CCCC(C)C1)SCC(C)C (stereo not shown) [Compound 28] |  |  |  |  |  |  |  |  |  |  |  |  |  |  |  |  |  |  |  |  | Mortality [1]: 100%
CCOP(=O)(SCC(=O)N1CCCC(C)C1)SC(C)C (stereo not shown) [Compound 22] | 0 | 0 | 0 | 5 | 5 | 5 | 0 | 0 | 0 | 4 | 4 | 5 | 4 | 4 | 4 | 4 | 5 | 5 | 5 | 5 | Herbicidal effects, barnyard grass ([8]; 40 g/a): 5; Herbicidal effect, redroot pigweed ([9]; 10 g./a.): 3; Herbicidal effect, redroot pigweed ([9]; 20 g./a.): 4; Herbicidal effect, redroot pigweed ([9]; 40 g./a.): 5; Herbicidal effect, large crabgrass ([10]; 10 g./a.): 4; Herbicidal effect, large crabgrass ([10]; 20 g./a.): 5; Herbicidal effect, large crabgrass ([10]; 40 g./a.): 5
CCOP(=O)(SCC(=O)N1CCCCC1CC)SC(C)C (stereo not shown) [Compound 76] | 0 | 0 | 0 | 5 | 5 | 5 | 0 | 1 | 2 | 5 | 5 | 5 | 5 | 5 | 5 | 5 | 5 | 5 | 5 | 5 | Herbicidal effects, barnyard grass ([8]; 40 g/a): 5; Herbicidal effect, redroot pigweed ([9]; 10 g./a.): 5; Herbicidal effect, redroot pigweed ([9]; 20 g./a.): 5; Herbicidal effect, redroot pigweed ([9]; 40 g./a.): 5; Herbicidal effect, large crabgrass ([10]; 10 g./a.): 5; Herbicidal effect, large crabgrass ([10]; 20 g./a.): 5; Herbicidal effect, large crabgrass ([10]; 40 g./a.): 5
CCCOP(=O)(SCCC)SCC(=O)N1CCCCC1CC (stereo not shown) [Compound 85] | 0 | 0 | 0 | 5 | 5 | 5 | 0 | 0 | 0 | 5 | 5 | 5 | 5 | 5 | 5 | 5 | 5 | 5 | 5 | 5 | Herbicidal effects, barnyard grass ([8]; 40 g/a): 5; Herbicidal effect, redroot pigweed ([9]; 10 g./a.): 5; Herbicidal effect, redroot pigweed ([9]; 20 g./a.): 5; Herbicidal effect, redroot pigweed ([9]; 40 g./a.): 5; Herbicidal effect, large crabgrass ([10]; 10 g./a.): 5; Herbicidal effect, large crabgrass ([10]; 20 g./a.): 5; Herbicidal effect, large crabgrass ([10]; 40 g./a.): 5
CCCCSP(=O)(OCCC)SCC(=O)N1CCCCC1CC (stereo not shown) [Compound 86] | 0 | 0 | 0 | 5 | 5 | 5 | 0 | 0 | 0 | 5 | 5 | 5 | 5 | 5 | 5 | 5 | 5 | 5 | 5 | 5 | Herbicidal effects, barnyard grass ([8]; 40 g/a): 5; Herbicidal effect, redroot pigweed ([9]; 10 g./a.): 4; Herbicidal effect, redroot pigweed ([9]; 20 g./a.): 5; Herbicidal effect, redroot pigweed ([9]; 40 g./a.): 5; Herbicidal effect, large crabgrass ([10]; 10 g./a.): 5; Herbicidal effect, large crabgrass ([10]; 20 g./a.): 5; Herbicidal effect, large crabgrass ([10]; 40 g./a.): 5
C#CCSP(=O)(OCC)SCC(=O)N1CCCCC1C (stereo not shown) [Compound 33] |  |  |  |  |  |  |  |  |  |  |  |  |  |  |  |  |  |  |  |  | Mortality [1]: 100%
C=C(C)CSP(=O)(OCC)SCC(=O)N1CCCCC1CC (stereo not shown) [Compound 81] | 0 | 0 | 1 | 5 | 5 | 5 | 0 | 0 | 1 | 5 | 5 | 5 | 5 | 5 | 5 | 5 | 5 | 5 | 5 | 5 | Herbicidal effects, barnyard grass ([8]; 40 g/a): 5; Herbicidal effect, redroot pigweed ([9]; 10 g./a.): 5; Herbicidal effect, redroot pigweed ([9]; 20 g./a.): 5; Herbicidal effect, redroot pigweed ([9]; 40 g./a.): 5; Herbicidal effect, large crabgrass ([10]; 10 g./a.): 5; Herbicidal effect, large crabgrass ([10]; 20 g./a.): 5; Herbicidal effect, large crabgrass ([10]; 40 g./a.): 5
CCCOP(=O)(SCCC(C)C)SCC(=O)N1CCCCC1CC (stereo not shown) [Compound 90] | 0 | 0 | 1 | 5 | 5 | 5 | 0 | 0 | 0 | 3 | 3 | 5 | 3 | 4 | 5 | 5 | 5 | 5 | 5 | 5 | Herbicidal effects, barnyard grass ([8]; 40 g/a): 5; Herbicidal effect, redroot pigweed ([9]; 10 g./a.): 3; Herbicidal effect, redroot pigweed ([9]; 20 g./a.): 4; Herbicidal effect, redroot pigweed ([9]; 40 g./a.): 5; Herbicidal effect, large crabgrass ([10]; 10 g./a.): 5; Herbicidal effect, large crabgrass ([10]; 20 g./a.): 5; Herbicidal effect, large crabgrass ([10]; 40 g./a.): 5
CCOP(=O)(SCCC(C)C)SCC(=O)N1CCCC(C)C1 (stereo not shown) [Compound 73] | 0 | 0 | 0 | 5 | 5 | 5 | 0 | 0 | 0 | 4 | 4 | 5 | 4 | 4 | 5 | 5 | 5 | 5 | 5 | 5 | Herbicidal effects, barnyard grass ([8]; 40 g/a): 5; Herbicidal effect, redroot pigweed ([9]; 10 g./a.): 4; Herbicidal effect, redroot pigweed ([9]; 20 g./a.): 4; Herbicidal effect, redroot pigweed ([9]; 40 g./a.): 5; Herbicidal effect, large crabgrass ([10]; 10 g./a.): 5; Herbicidal effect, large crabgrass ([10]; 20 g./a.): 5; Herbicidal effect, large crabgrass ([10]; 40 g./a.): 5
